Reference: US8859021B2, “Skin appearance through gene manipulation” (Sytheon, priority 2007, dated 2014)
Like-named read-outs stand apart in the source and are kept apart here.

Tested on: EpiDerm tissues
Conditions: retinol 10 μg/ml, Sytenol A 5 μg/ml, 2 days, vs 0.1% DMSO control

CC1=C(/C=C/C(C)=C/C=C/C(C)=C/CO)C(C)(C)CCC1 [Retinol, retinol]
Fold Change, ACTN1 Alpha-actinin-1 (Alpha-actinin cytoskeletal isoform) (Table 8): +3.11 fold | Fold Change, ACTN1 Alpha-actinin-1 (Alpha-actinin cytoskeletal isoform) (Table 9): +3.11 fold | Fold Change, ACTN4 Alpha-actinin-4(F-actin cross-linking protein) (Table 8): +2.99 fold | Fold Change, ACTN4 Alpha-actinin-4(F-actin cross-linking protein) (Table 9): +2.99 fold | Fold Change, AFAP1L2 Actin filament-associated protein 1-like 2: +2.84 fold | Fold Change, C16orf30 Claudin-like protein 24: −2.23 fold | Fold Change, CDH1 Epithelia-cadherin precursor (E-cadherin) (Table 7): +9.39 fold | Fold Change, CDH1 Epithelial-cadherin precursor (E-cadherin) E-Cad/CTF1 (Table 9): +9.39 fold | Fold Change, CDH3 Cadherin-3-precursor (P-cadherin): +3.99 fold | Fold Change, CDH19 Cadherin-19-precursor: −4.11 fold | Fold Change, CDH24 Cadherin-24-precursor: +2.06 fold | Fold Change, CDK5R1 Tau protein kinase II 23 kDa subunit (Cyclin-dependent kinase 5 activator 1 precursor (CDK5 activator 1)): +2.17 fold | Fold Change, CLDN4 Claudin-4 (Clostridium perfringens enterotoxin receptor) (CPE-R): +3.63 fold | Fold Change, CLDN5 Claudin-5 (Transmembrane protein deleted in VCFS): −3.66 fold | Fold Change, CLDN6 Claudin-6 (Skullin 2): +2.59 fold | Fold Change, CLDN7 Claudin-7 (CLDN-7): +25.30 fold | Fold Change, CLDN11 Claudin-11 (Oligodendrocyte-specific protein): −2.86 fold | Fold Change, CLDN12 Claudin-12: +3.73 fold | Fold Change, CLDN16 Claudin-16 (Paracellin-1) (PCLN-1): +7.79 fold | Fold Change, COL1A2 Collagen alpha-2 (I) chain precursor (Alpa-2 type I collagen): +3.31 fold | Fold Change, COL3A1 Collagen alpha-1 (III) chain precursor: −2.36 fold | Fold Change, COL4A6 Collagen alpha-6 (IV) chain precursor: +6.41 fold | Fold Change, COL9A2 Collagen alpha-2 (IX) chain precursor: +5.56 fold | Fold Change, COL9A3 Collagen alpha-3 (IX) chain precursor: +4.05 fold | Fold Change, COL17A1 Collagen alpha-1 (XVII) chain precursor: +3.5 fold | Fold Change, CRABP1 Cellular retinoic acid-binding protein 1: +2.83 fold | Fold Change, CTHRC1 Collagen triple helix repeat-containing protein 1 precursor: −18.94 fold | Fold Change, CTNNAL1 Alpha-catenin-related protein (ACRP) (Table 8): −2.60 fold | Fold Change, CTNNAL1 Alpha-catenin-related protein (ACRP) (Table 9): −2.04 fold | Fold Change, CYP26B1 Cytochrome P450 26B1 (Retinoic acid-metabolizing cytochrome): +1.87 fold | Fold Change, Connective tissue growth factor precursor (Hypertrophic chondrocyte-specific protein 24): −4.61 fold | Fold Change, DHRS9 NADP-dependent retinol dehydrogenase/reductase: +5.48 fold | Fold Change, DSC1 Desmocollin-1-precursor (DG2/DG3): −7.49 fold | Fold Change, DSC2 Desmocollin-2-precursor (Desmocollin-3): +3.71 fold | Fold Change, DSG1 Desmoglein-1-precursor (DG1): −2.30 fold | Fold Change, DSG2 Desmoglein-2-precursor: +13.03 fold | Fold Change, DSG3 Desmoglein-3-precursor: +2.35 fold | Fold Change, DSG4 Desmoglein-4-precursor: No effect | Fold Change, ECM1 Extracellular matrix protein 1 precursor: No effect | Fold Change, ECM2 Extracellular matrix protein 2 precursor: +4.98 fold | Fold Change, ELA3B Elastase-3B precursor (Elastase IIIB): +5.89 fold | Fold Change, F11R Junctional adhesion molecule 1 (JAM-1): +5.77 fold | Fold Change, FLNB Actin-binding-like protein: +3.89 fold | Fold Change, FLRT2 Fibronectin-like-domain-containing leucine-rich transmembrane protein 2: −2.67 fold | Fold Change, FLRT3 Fibronectin-like-domain-containing leucine-rich transmembrane protein 3: +2.77 fold | Fold Change, FNDC7 Fibronectin type III domain containing 7: No effect | Fold Change, Fibroblast growth factor 9 (HBGF-9): −12.36 fold | Fold Change, Fibroblast growth factor 23 precursor (FGF-23) (Tumor-derived hypophosphatemia-inducing factor): −9.78 fold | Fold Change, Fibroblast growth factor receptor 2 precursor (FGFR-2): +6.50 fold | Fold Change, Fibroblast growth factor-binding protein 1 precursor (FGF-BP1): +3.51 fold | Fold Change, GSN Gelsolin precursor (Actin-depolymerizing factor) (ADF): +3.47 fold | Fold Change, HAS2 Hyaluronan synthase 2: −3.48 fold | Fold Change, HAS3 Hyaluronan synthase 3: +10.88 fold | Fold Change, HS3ST1 Heparan sulfate 3-O-sulfotransferase 1 (Table 6): +8.65 fold | Fold Change, HS3ST1 Heparan sulfate glucosamine 3-O-sulfotransferase 1 precursor (Heparan sulfate 3-O-sulfotransferase 1) (Table 3): +8.65 fold | Fold Change, HS6ST1 Heparan sulfate 6-O-sulfotransferase 1: +2.26 fold | Fold Change, HYAL1 Hyaluronidase-1-precursor: +2.16 fold | Fold Change, Heparin-binding EGF-like growth factor precursor (HB-EGF): +3.89 fold | Fold Change, IGSF1 Immunoglobulin superfamily, member 1 isoform 1: +3.11 fold | Fold Change, IGSF3 Immunoglobulin superfamily, member 3 isoform 2: +5.81 fold | Fold Change, ITG5 Integrin beta-5 precursor (Table 7): −2.42 fold | Fold Change, ITGA6 Integrin alpha-6 precursor: No effect | Fold Change, ITGA7 Integrin alpha-7 precursor: −5.53 fold | Fold Change, ITGB2 Integrin beta-2-precursor: −3.54 fold | Fold Change, ITGB4 Integrin beta-4-precursor (Table 3): +3.48 fold | Fold Change, ITGB4 Integrin beta-4 precursor (Table 7): +3.48 fold | Fold Change, ITGB5 Integrin beta-5 precursor (Table 3): −2.42 fold | Fold Change, ITGB6 Integrin beta-6-precursor (Table 3): +7.49 fold | Fold Change, ITGB6 Integrin beta-6-precursor (Table 7): +7.49 fold | Fold Change, ITGB8 Integrin beta-8 precursor (Table 3): No effect | Fold Change, ITGB8 Integrin beta-8 precursor (Table 7): No effect | Fold Change, ITGBL1 Integrin beta-like 1: −4.38 fold | Fold Change, Insulin growth factor-like family member 3 precursor (IGBP-3): −7.11 fold | Fold Change, Insulin growth factor-like family member 4 precursor (IGBP-4): +5.97 fold | Fold Change, Insulin-like growth factor-binding protein 6 precursor (IGBP-6): +5.89 fold | Fold Change, JUP Catenin gamma (Junction plakoglobin) (Table 8): +2.43 fold | Fold Change, JUP Catenin gamma (Table 9): +2.43 fold | Fold Change, KIF1C Kinesin-like protein KIF1C: +2.47 fold | Fold Change, KIF2A Kinesin-like protein KIF2A: −3.62 fold | Fold Change, KIF4A Chromosome-associated kinesin KIF4A: +2.08 fold | Fold Change, KIF13A Kinsein-like protein KIF13A: −2.27 fold | Fold Change, KIF13B Kinsein-like protein KIF13B: +2.91 fold | Fold Change, KIF17 Kinesin-like protein KIF17: +2.18 fold | Fold Change, KIF26A Kinesin family member 26A: −2.93 fold | Fold Change, KIFC2 Kinesin-like protein KIFC2: −2.45 fold | Fold Change, KRT2 Keratin-2; Cytokeratin-2e (CK 2e): −8.37 fold | Fold Change, KRT5 Keratin-5, Cytokeratin-5 (CK-5): +2.39 fold | Fold Change, KRT7 Keratin-7; Cytokeratin-7 (CK-7): +8.75 fold | Fold Change, KRT13 Keratin-13; Cytokeratin-13 (CK-13): +14.17 fold | Fold Change, KRT15 Keratin-15; Cytokeratin-15 (CK-15): +5.48 fold | Fold Change, KRT19 Keratin-19; Cytokeratin-19 (CK-19): +11.27 fold | Fold Change, LAMA3 Laminin subunit alpha-3 precursor (Epiligrin 170 kDa subunit): +4.70 fold | Fold Change, LAMC2 Laminin subunit gamma-2 precursor (Laminin B2t chain): +2.68 fold | Fold Change, LRAT Lecithin retinol acyltransferase: +12.3 fold | Fold Change, LRRC49 Tubulin polyglutamylase complex subunit 4 (PGs4): −2.83 fold | Fold Change, MC1R, TUBB3 Tubulin beta-3-chain (Tubulin beta-III): +2.99 fold | Fold Change, MMP9 Matrix metalloprotease-9-precursor: +8.35 fold | Fold Change, MMP15 Matrix metalloprotease-15 precursor: +3.67 fold | Fold Change, MMP21 Matrix metalloprotease-21 precursor: No effect | Fold Change, MMP23A, MMP23B Matrix metalloprotease-23: −5.78 fold | Fold Change, MMP26 Matrix metalloprotease-26-precursor (MMP-26): +4.31 fold | Fold Change, MMP28 Matrix metalloprotease-28-precursor: +3.88 fold | Fold Change, MYH14 Myosin-14: +3.38 fold | Fold Change, MYL2 Myosin regulatory light chain 2: No effect | Fold Change, MYO1F Myosin-lf (Myosin-le): +6.29 fold | Fold Change, MYO6 Myosin-VI: No effect | Fold Change, Mast/stem cell growth factor receptor precursor (SCFR) (Proto-oncogene tyrosine-protein kinase kit (c-kit)): −3.36 fold | Fold Change, NDST4 N-heparan sulfate sulfotransferase 4: No effect | Fold Change, NEIL2 DNA glycosylase/AP lyase Neil2: +12.79 fold | Fold Change, NF-kappa-B-activating protein: −2.13 fold | Fold Change, NGRN, TTLL13 Tubulin tyrosine ligase-like family, member 13: +11.61 fold | Fold Change, NID2 Nidogen-2-precursor: −17.36 fold | Fold Change, NT5C1B, RDH14 Retinol dehydrogenase 14 (Alcohol dehydrogenase PAN20): −5.33 fold | Fold Change, Nuclear factor Kappa B p105 unit (NF-kappa-B) (DNA-binding factor KBF 1): −3.62 fold | Fold Change, PARP2 Poly (ADP-ribose) polymerase 2: +2.08 fold | Fold Change, PARP9 Poly (ADP-ribose) polymerase 9: +5.92 fold | Fold Change, PARP12 Poly (ADP-ribose) polymerase 12: +4.69 fold | Fold Change, PARP15 Poly (ADP-ribose) polymerase 15: +6.37 fold | Fold Change, PCDH11X Procadherin-11: +3.18 fold | Fold Change, PCDH18 Procadherin-18-precursor: −2.49 fold | Fold Change, PCDH19 Procadherin-19-precursor: −3.41 fold | Fold Change, PCDHB1 Procadherin-beta-1-precursor: No effect | Fold Change, PCDHB2 Procadherin-beta-2-precursor: No effect | Fold Change, PCDHB3 Procadherin-beta-3-precursor: −6.57 fold | Fold Change, PCDHB4 Procadherin-beta-4-precursor: −2.62 fold | Fold Change, PFN4 Profilin-4 (Profilin IV): +4.77 fold | Fold Change, PI3 Elastase-specific inhibitor: +2.45 fold | Fold Change, Protein Kinase B (RAC-alpha serine/threonine-protein kinase) (RAC-PK-alpha): −5.09 fold | Fold Change, RARB Retinoic acid receptor beta-1: +5.63 fold | Fold Change, RARG Retinoic acid receptor gama-1: +1.87 fold | Fold Change, RARRES1 Retinoic acid receptor responder protein 1: +13.25 fold | Fold Change, RBP1 Cellular Retinol-binding protein-I: +2.6 fold | Fold Change, RBP2 Cellular Retinol-binding protein-II: No effect | Fold Change, RBP7 Cellular retinoic acid-binding protein 4: No effect | Fold Change, RETSAT All-trans-retinol 13,14-reductase precursor: −2.97 fold | Fold Change, SELE E-selection precursor (Endothelial leukocyte adhesion molecule 1) (ELAM-1): −2.11 fold | Fold Change, SERPINB1 Leukocyte elastase inhibitor: +3.80 fold | Fold Change, SIR2-like protein1/NAD-dependent deacetylase sirtuin-1 (hSIRT1): −1.89 fold | Fold Change, SIR2-like protein2/NAD-dependent deacetylase sirtuin-2: +1.52 fold | Fold Change, SIR2-like protein7/NAD-dependent deacetylase sirtuin-7: +1.58 fold | Fold Change, SRRM1 Serine/arginine repetitive matrix protein 1 (SR-related nuclear matrix protein 160 kDa) (SRm160): +3.57 fold | Fold Change, TBCEL Tubulin-specific chaperone cofactor E-like protein (EL): +2.20 fold | Fold Change, TTBK1 Tau-tubulin kinase 1: −7.99 fold | Fold Change, TTLL1 Tubulin polyglutamylase complex subunit 3 (PGs3): +1.92 fold | Fold Change, TUBB2B Tubulin beta-2B chain: −2.56 fold | Laminins gene regulation (in words): up-regulate | Fold Change, ITGA7 Integrin alpha-7 precursor (listed as retinol): significant down-regulatory effect | Fold Change, ITGB5 Integrin beta-5 precursor (Table 3) (listed as retinol): significant down-regulatory effect | Fold Change, ITGBL1 Integrin beta-like 1 (listed as retinol): significant down-regulatory effect | Fold Change, NID2 Nidogen-2-precursor (listed as retinol): significant down-regulation
